Assay results published in patent US11135234B2, “Effective aminoglycoside antibiotic for multidrug-resistant bacteria” (MICROBIAL CHEMISTRY RESEARCH FOUNDATION, priority 2015, dated 2021).
≈ marks a conversion by molar mass, not a printed value.

What was measured:
S. aureus RN4220 = assay: MIC, agar plate dilution method, S. aureus RN4220; assay type: cell-based, Staphylococcus aureus; details: for MIC: Staphylococcus aureus, RN4220, S. aureus RN4220, Sensitive bacterium, read-out: minimal inhibitory concentration (MIC)
Protocol: (§1) As for the representative compounds of a new aminoglycoside antibiotic of the present invention described in Examples, the minimal inhibitory concentration (MIC, μg/mL) was measured for various assay strains of bacteria using an agar plate dilution method in accordance with the method described in the Japan Society of Chemotherapy.

S. aureus RN4220/pMS520 = assay: MIC, agar plate dilution method, S. aureus RN4220/pMS520; assay type: cell-based, Staphylococcus aureus; details: for MIC: Staphylococcus aureus, MRSA, read-out: minimal inhibitory concentration (MIC), S. aureus RN4220/pMS520, MRSA
Protocol: as §1

S. aureus MF490 = assay: MIC, agar plate dilution method, S. aureus MF490; assay type: cell-based, Staphylococcus aureus; details: for MIC: Staphylococcus aureus, MRSA, read-out: minimal inhibitory concentration (MIC)
Protocol: as §1

E. faecium ATCC19434 = assay: MIC, agar plate dilution method, E. faecium ATCC19434; assay type: cell-based, Enterococcus faecium; details: for MIC: Enterococcus faecium, ATCC19434, E. faecium ATCC19434, read-out: minimal inhibitory concentration (MIC)
Protocol: as §1

E. coli JM109/pMW218 = assay: MIC, agar plate dilution method, E. coli JM109/pMW218; assay type: cell-based, Escherichia coli; details: for MIC: Escherichia coli, JM109/PMW218, E. coli JM109/pMW218, Sensitive bacterium, read-out: minimal inhibitory concentration (MIC)
Protocol: as §1

[1] = tested on: K. pneumoniae ATCC BAA-1705; assay: MIC, agar plate dilution method, K. pneumoniae ATCC BAA-1705; assay type: cell-based, Klebsiella pneumoniae; details: for minimal inhibitory concentration (MIC): K. pneumoniae ATCC BAA-1705, KPC-producing strain; for MIC: Klebsiella pneumoniae, ATCCBAA1705, K. pneumoniae ATCC BAA-1705, KPC-producing strain, read-out: minimal inhibitory concentration (MIC)
Protocol: as §1

[2] = tested on: K. pneumoniae ATCC BAA-2146; assay: MIC, agar plate dilution method, K. pneumoniae ATCC BAA-2146; assay type: cell-based, Klebsiella pneumoniae; details: for MIC: Klebsiella pneumoniae, ATCCBAA2146, K. pneumoniae ATCC BAA-2146, NDM-producing strain, read-out: minimal inhibitory concentration (MIC)
Protocol: as §1

[3] = tested on: A. baumannii ATCC BAA-1710; assay: MIC, agar plate dilution method, A. baumannii ATCC BAA-1710; assay type: cell-based, Acinetobacter baumannii; details: for MIC: Acinetobacter baumannii, ATCCBAA1710, A. baumannii ATCC BAA-1710, MDRA, read-out: minimal inhibitory concentration (MIC)
Protocol: as §1

S. marcescens TH-0447 = assay: MIC, agar plate dilution method, S. marcescens TH-0447; assay type: cell-based, Serratia marcescens; details: for MIC: Serratia marcescens, TH0447, S. marcescens TH-0447, AMK-resistant, read-out: minimal inhibitory concentration (MIC)
Protocol: as §1

S. marcescens GN6944 = assay: MIC, agar plate dilution method, S. marcescens GN6944; assay type: cell-based, Serratia marcescens; details: S. marcescens GN6944, GM-resistant; for MIC: Serratia marcescens, read-out: minimal inhibitory concentration (MIC)
Protocol: as §1

P. aeruginosa PAO1 = assay: MIC, agar plate dilution method, P. aeruginosa PAO1; assay type: cell-based, Pseudomonas aeruginosa; details: for minimal inhibitory concentration (MIC): P. aeruginosa PAO1, Sensitive bacterium; for MIC: Pseudomonas aeruginosa, PAO1, P. aeruginosa PAO1, Sensitive bacterium, read-out: minimal inhibitory concentration (MIC)
Protocol: as §1

P. aeruginosa PAO1/GN315 = assay: MIC, agar plate dilution method, P. aeruginosa PAO1/GN315; assay type: cell-based, Pseudomonas aeruginosa; details: for MIC: Pseudomonas aeruginosa, read-out: minimal inhibitory concentration (MIC), P. aeruginosa PAO1/GN315, AMK-resistant
Protocol: as §1

P. aeruginosa MSC17707 = assay: MIC, agar plate dilution method, P. aeruginosa MSC17707; assay type: cell-based, Pseudomonas aeruginosa; details: for MIC: Pseudomonas aeruginosa, MSC17707, P. aeruginosa MSC17707, AMK-resistant, read-out: minimal inhibitory concentration (MIC)
Protocol: as §1

P. aeruginosa MSC01035 = assay: MIC, agar plate dilution method, P. aeruginosa MSC01035; assay type: cell-based, Pseudomonas aeruginosa; details: P. aeruginosa MSC01035, ABK-resistant; for MIC: Pseudomonas aeruginosa, read-out: minimal inhibitory concentration (MIC)
Protocol: as §1

| SMILES | minimal inhibitory concentration (MIC) [1] | minimal inhibitory concentration (MIC) (P. aeruginosa PAO1) | MIC (S. aureus RN4220) | MIC (S. aureus RN4220/pMS520) | MIC (S. aureus MF490) | MIC (E. faecium ATCC19434) | MIC (E. coli JM109/pMW218) | MIC [1] | MIC [2] | MIC [3] | MIC (S. marcescens TH-0447) | MIC (S. marcescens GN6944) | MIC (P. aeruginosa PAO1) | MIC (P. aeruginosa PAO1/GN315) | MIC (P. aeruginosa MSC17707) | MIC (P. aeruginosa MSC01035) | further results |
| --- | --- | --- | --- | --- | --- | --- | --- | --- | --- | --- | --- | --- | --- | --- | --- | --- | --- |
| CNC1C(OC2OC(CO)C(NC(=N)N)C(O)C2O)OC2CC(N)C(OC3C(N)CC(N)C(O)C3N)OC2C1O (stereo not drawn) [Compound W2-a, 5-amino-4″-deamino-5-deoxy-5-epi-4″-guanidinoapramycin] | 1 µg/mL (≈ 1.72 µM) | 4 µg/mL (≈ 6.89 µM) | – | – | – | – | – | – | – | – | – | – | – | – | – | – | minimal inhibitory concentration (MIC) (S. aureus RN4220; S. aureus RN4220, Sensitive bacterium): 1 µg/mL (≈ 1.72 µM); minimal inhibitory concentration (MIC) (S. aureus RN4220/pMS520; S. aureus RN4220/pMS520, MRSA): 1 µg/mL (≈ 1.72 µM); minimal inhibitory concentration (MIC) (S. aureus MF490; S. aureus MF490, MRSA): 4 µg/mL (≈ 6.89 µM); minimal inhibitory concentration (MIC) (E. faecium ATCC19434; E. faecium ATCC19434): 8 µg/mL (≈ 13.8 µM); minimal inhibitory concentration (MIC) (E. coli JM109/pMW218; E. coli JM109/pMW218, Sensitive bacterium): 1 µg/mL (≈ 1.72 µM); minimal inhibitory concentration (MIC) ([2]; K. pneumoniae ATCC BAA-2146, NDM-producing strain): 1 µg/mL (≈ 1.72 µM); minimal inhibitory concentration (MIC) ([3]; A. baumannii ATCC BAA-1710, MDRA): 8 µg/mL (≈ 13.8 µM); minimal inhibitory concentration (MIC) (S. marcescens TH-0447; S. marcescens TH-0447, AMK-resistant): 4 µg/mL (≈ 6.89 µM); minimal inhibitory concentration (MIC) (S. marcescens GN6944): 4 µg/mL (≈ 6.89 µM); minimal inhibitory concentration (MIC) (P. aeruginosa PAO1/GN315; P. aeruginosa PAO1/GN315, AMK-resistant): 4 µg/mL (≈ 6.89 µM); minimal inhibitory concentration (MIC) (P. aeruginosa MSC17707; P. aeruginosa MSC17707, AMK-resistant): 8 µg/mL (≈ 13.8 µM); minimal inhibitory concentration (MIC) (P. aeruginosa MSC01035): 4 µg/mL (≈ 6.89 µM) |
| CNC1C(O[C@H]2OC(CO)[C@@H](NC(=O)CN)[C@H](O)C2O)O[C@H]2C[C@H](N)[C@@H](O[C@@H]3C(N)C[C@@H](N)C[C@H]3O)OC2C1O (stereo partly drawn) [Compound V1-o, 6-deoxy-5-epi-4″-N-glycylapramycin] | – | – | 1 µg/mL (≈ 1.72 µM) | 1 µg/mL (≈ 1.72 µM) | 4 µg/mL (≈ 6.89 µM) | 8 µg/mL (≈ 13.8 µM) | 0.5 µg/mL (≈ 0.861 µM) | 1 µg/mL (≈ 1.72 µM) | 1 µg/mL (≈ 1.72 µM) | 4 µg/mL (≈ 6.89 µM) | 8 µg/mL (≈ 13.8 µM) | 4 µg/mL (≈ 6.89 µM) | 2 µg/mL (≈ 3.44 µM) | 2 µg/mL (≈ 3.44 µM) | 2 µg/mL (≈ 3.44 µM) | 4 µg/mL (≈ 6.89 µM) | – |
| CNC1C(O[C@H]2OC(CO)[C@@H](NC(=N)N)[C@H](O)C2O)O[C@H]2CC(N)[C@@H](O[C@@H]3C(N)C[C@@H](N)C(O)[C@H]3F)OC2C1O (stereo partly drawn) [Compound S1-k, 4″-deamino-5-deoxy-5-epi-5-fluoro-4″-guanidinoapramycin] | – | – | 1 µg/mL (≈ 1.71 µM) | 1 µg/mL (≈ 1.71 µM) | 4 µg/mL (≈ 6.85 µM) | 16 µg/mL (≈ 27.4 µM) | 0.5 µg/mL (≈ 0.857 µM) | 1 µg/mL (≈ 1.71 µM) | 1 µg/mL (≈ 1.71 µM) | 8 µg/mL (≈ 13.7 µM) | 8 µg/mL (≈ 13.7 µM) | 4 µg/mL (≈ 6.85 µM) | 8 µg/mL (≈ 13.7 µM) | 8 µg/mL (≈ 13.7 µM) | 8 µg/mL (≈ 13.7 µM) | 8 µg/mL (≈ 13.7 µM) | – |
| CNC1C(O[C@H]2OC(CO)[C@@H](NC(=O)CCN)[C@H](O)C2O)O[C@H]2CC(N)[C@@H](O[C@@H]3C(N)C[C@@H](N)C(O)[C@H]3O)OC2C1O (stereo partly drawn) [Compound V1-g, 4″-N-(β-alanyl)apramycin] | – | – | 4 µg/mL (≈ 6.55 µM) | 2 µg/mL (≈ 3.28 µM) | 8 µg/mL (≈ 13.1 µM) | 32 µg/mL (≈ 52.4 µM) | 1 µg/mL (≈ 1.64 µM) | 2 µg/mL (≈ 3.28 µM) | 1 µg/mL (≈ 1.64 µM) | 8 µg/mL (≈ 13.1 µM) | 16 µg/mL (≈ 26.2 µM) | 8 µg/mL (≈ 13.1 µM) | 4 µg/mL (≈ 6.55 µM) | 4 µg/mL (≈ 6.55 µM) | 4 µg/mL (≈ 6.55 µM) | 4 µg/mL (≈ 6.55 µM) | – |
| CNC1C(O[C@H]2OC(CO)[C@@H](NC(=O)[C@H](C)N)[C@H](O)C2O)O[C@H]2CC(N)[C@@H](O[C@@H]3C(N)C[C@@H](N)C(O)[C@H]3O)OC2C1O (stereo partly drawn) [Compound V1-k, 4″-N-(L-alanyl)-5-epiapramycin] | 1 µg/mL (≈ 1.64 µM) | 4 µg/mL (≈ 6.55 µM) | 4 µg/mL (≈ 6.55 µM) | 4 µg/mL (≈ 6.55 µM) | 8 µg/mL (≈ 13.1 µM) | 16 µg/mL (≈ 26.2 µM) | 1 µg/mL (≈ 1.64 µM) | – | 1 µg/mL (≈ 1.64 µM) | 8 µg/mL (≈ 13.1 µM) | 16 µg/mL (≈ 26.2 µM) | 8 µg/mL (≈ 13.1 µM) | – | 4 µg/mL (≈ 6.55 µM) | 4 µg/mL (≈ 6.55 µM) | 8 µg/mL (≈ 13.1 µM) | – |
